Here are results for nine molecules from patent US9944641B2, “Isoquinolinone derivatives useful in the treatment of cancer” (PIERRE FABRE MEDICAMENT, priority 2014, dated 2018).

Where only a bound is given, the exact number is not on record here.

Experiment [1] relates to MV4-11 cells. Description: Antiproliferative activity assay (ATPLite), MV4-11. The class given is cell-based. As to conditions: Homo sapiens, MV4-11 (AML, FLT3-ITD), 72 h, read-out: Inhibition of proliferation (EC50) MV411. The procedure: Cell lines MV4-11 and MOLM-13 are grown according to conditions depicted in Table 2 following the provider recommendations.
Assays are being run into 96-well plates. Cells are passaged at Day 0, seeded at Day 1 and added with increasing quantities of the compounds to evaluate. Plates are incubated for 72 h at 37° C. under a 5% CO2 atmosphere.
Half-logarithmic dilutions from compounds stock solutions in DMSO (Sigma #D8414) were done in order to obtain 0.1% DMSO solutions.
Cellular viability is measured at Day 4 with the ATPLite (Perkin Elmer #6016947) kit.
For orientation: Cellular ATP, detected with luciferase, serves as a proxy for viable cell number.

Experiment [2] has as its target T1, JAK3 (Homo sapiens, UniProt P52333).
T1 construct: purchased Life Technologies PV3855
T1 sequence (P52333 1-1124): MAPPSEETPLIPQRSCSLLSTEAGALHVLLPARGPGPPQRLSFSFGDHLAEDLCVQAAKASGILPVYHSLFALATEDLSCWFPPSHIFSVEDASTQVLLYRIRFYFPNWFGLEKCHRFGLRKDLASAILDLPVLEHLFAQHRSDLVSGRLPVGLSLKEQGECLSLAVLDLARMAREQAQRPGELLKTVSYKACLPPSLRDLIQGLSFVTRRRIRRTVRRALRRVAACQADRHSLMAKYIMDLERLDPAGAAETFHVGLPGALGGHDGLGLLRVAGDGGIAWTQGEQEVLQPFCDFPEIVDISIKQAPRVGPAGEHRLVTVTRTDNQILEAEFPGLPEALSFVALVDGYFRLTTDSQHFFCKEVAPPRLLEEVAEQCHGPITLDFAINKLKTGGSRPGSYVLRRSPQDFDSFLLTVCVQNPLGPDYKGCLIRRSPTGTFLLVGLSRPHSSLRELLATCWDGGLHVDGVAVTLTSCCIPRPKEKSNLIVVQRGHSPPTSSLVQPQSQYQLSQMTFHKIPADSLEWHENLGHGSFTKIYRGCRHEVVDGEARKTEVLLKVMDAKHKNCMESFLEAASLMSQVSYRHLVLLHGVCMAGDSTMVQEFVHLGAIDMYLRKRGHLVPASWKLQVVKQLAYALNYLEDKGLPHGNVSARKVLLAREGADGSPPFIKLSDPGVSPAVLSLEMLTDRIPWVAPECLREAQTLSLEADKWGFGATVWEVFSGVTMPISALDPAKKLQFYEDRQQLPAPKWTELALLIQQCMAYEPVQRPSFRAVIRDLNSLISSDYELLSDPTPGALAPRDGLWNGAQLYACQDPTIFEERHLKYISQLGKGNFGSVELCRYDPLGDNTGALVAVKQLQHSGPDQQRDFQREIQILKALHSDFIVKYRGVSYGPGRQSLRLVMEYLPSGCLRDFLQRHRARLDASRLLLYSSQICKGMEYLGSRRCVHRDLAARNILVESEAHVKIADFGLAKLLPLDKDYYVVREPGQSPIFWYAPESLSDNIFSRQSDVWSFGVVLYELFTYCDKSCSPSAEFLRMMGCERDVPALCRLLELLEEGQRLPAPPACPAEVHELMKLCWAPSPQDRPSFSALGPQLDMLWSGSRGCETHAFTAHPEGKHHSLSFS
Kind of experiment: Lanthascreen TR-FRET enzymatic assay, JAK3. The experiment is classed as binding. As to conditions: recombinant JAK3, 1 hour at 25° C., 1% DMSO; read-out: Enzymology (IC50) JAK3. The procedure: (§1) Recombinant FLT3 (#PV3182), JAK2 (#PV4210) and JAK3 (#PV3855) enzymes were purchased from Life Technologies. FLT3-ITD (#0778-0000-1) and FLT3^D835Y (#14-610) were respectively purchased from Proquinase and Merck Millipore.
(§2) The assays were conducted in 384-well plates based on Life Technologies Lanthascreen® TR-FRET methodologies.
JAK3 assays: 15 nM of […], 3 nM of the 236 kinase tracker (Life Technologies #PV5592) and 6 nM of the Europium-tagged anti-GST Lanthascreen® antibody are mixed into 15 μL total volume reaction mixture.
(§3) IC50s were determined from a 8-point dose-response curve spanning a >1000 fold concentration range using a 10 mM compound solution stock into pure DMSO (Sigma #D8418). The overall DMSO concentrations of tested solutions were 1%.
(§4) IC50s were generated with the software Prism (Graphpad).

The target of experiment [3] is T2, FLT3 D835Y (Homo sapiens, UniProt P36888, D835Y).
T2 construct: purchased Merck Millipore 14-610
T2 sequence (P36888 27-993 D835Y): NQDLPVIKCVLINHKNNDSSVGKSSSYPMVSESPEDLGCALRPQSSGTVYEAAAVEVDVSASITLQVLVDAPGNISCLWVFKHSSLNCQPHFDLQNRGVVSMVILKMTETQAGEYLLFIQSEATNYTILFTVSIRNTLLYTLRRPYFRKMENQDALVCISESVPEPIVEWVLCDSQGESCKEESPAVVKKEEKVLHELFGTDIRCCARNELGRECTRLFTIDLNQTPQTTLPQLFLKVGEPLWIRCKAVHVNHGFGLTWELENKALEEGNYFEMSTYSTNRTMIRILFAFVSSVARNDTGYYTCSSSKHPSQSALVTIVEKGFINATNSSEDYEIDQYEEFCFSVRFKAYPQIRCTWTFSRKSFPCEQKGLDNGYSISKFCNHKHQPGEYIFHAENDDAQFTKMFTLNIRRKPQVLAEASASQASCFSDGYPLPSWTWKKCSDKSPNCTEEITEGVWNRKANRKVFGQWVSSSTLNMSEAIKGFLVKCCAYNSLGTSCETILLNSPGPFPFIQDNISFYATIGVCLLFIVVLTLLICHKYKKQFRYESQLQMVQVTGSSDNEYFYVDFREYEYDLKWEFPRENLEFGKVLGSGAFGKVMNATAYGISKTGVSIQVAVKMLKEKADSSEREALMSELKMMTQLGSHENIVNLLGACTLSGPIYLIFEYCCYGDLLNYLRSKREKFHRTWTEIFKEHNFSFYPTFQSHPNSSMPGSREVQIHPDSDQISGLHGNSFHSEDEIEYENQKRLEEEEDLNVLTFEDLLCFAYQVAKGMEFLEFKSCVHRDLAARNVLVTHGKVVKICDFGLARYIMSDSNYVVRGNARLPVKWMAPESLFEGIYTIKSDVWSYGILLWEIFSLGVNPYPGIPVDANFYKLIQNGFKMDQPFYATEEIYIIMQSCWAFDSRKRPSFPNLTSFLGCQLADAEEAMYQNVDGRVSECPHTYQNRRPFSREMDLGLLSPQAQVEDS
Description: Lanthascreen TR-FRET enzymatic assay, FLT3 D835Y. The experiment is classed as binding. As to conditions: 1 hour at 25° C., 1% DMSO, read-out: Enzymology (IC50) FLT3 D835Y. The procedure:
as §1, §2
FLT3-ITD or FLT3^D835Y assays: 15 nM of FLT3-ITD or FLT3^D835Y, 3 nM of the 236 kinase tracker (Life Technologies #PV5592) and 6 nM of the Europium-tagged anti-GST Lanthascreen® antibody are mixed into 15 μL total volume reaction mixture.
as §3, §4

With `Cn1c(=O)c2cc(N)ccc2c2nc(Nc3cccc(N)c3)ncc21` [Compound C2, 8-amino-2-((3-aminophenyl)amino)-5-methylpyrimido[5,4-c]isoquinolin-6(5H)-one], the EC50 in experiment [1] fell in the range of 0.025 to 0.1 µM. Also, the results for the IC50 in experiment [2] and in experiment [3] were 0.025 to 0.1 µM and less than 0.025 µM, respectively.
As to `CN1CCN(c2ccc(Nc3ncc4c(n3)c3ccc(N)cc3c(=O)n4C)cc2)CC1` [Compound C4, 8-amino-5-methyl-2-((4-(4-methylpiperazin-1-yl)phenyl)amino)pyrimido[5,4-c]isoquinolin-6(5H)-one], the EC50 in experiment [1] is less than 0.025 µM. Moreover, the concentration for half-maximal inhibition (IC50) (in general, the point on the concentration scale where inhibition reaches its midpoint) in experiment [2] was 0.025 to 0.1 µM; in experiment [3] it was less than 0.025 µM.
In the case of `CN1CCN(c2cccc(Nc3ncc4c(n3)c3ccc(N)cc3c(=O)n4C)c2)CC1` [Compound C6, 8-amino-5-methyl-2-((3-(4-methylpiperazin-1-yl)phenyl)amino)pyrimido[5,4-c]isoquinolin-6(5H)-one], in experiment [1], the EC50 was in the range of 0.025 to 0.1 µM. The IC50 in experiment [2] was 0.025 to 0.1 µM; in experiment [3], less than 0.025 µM.
As to `COc1cc2c(cc1N)c(=O)n(C)c1cnc(Nc3ccc(N4CCN(C)CC4)cc3)nc21` [Compound C10, 8-amino-9-methoxy-5-methyl-2-((4-(4-methylpiperazin-1-yl)phenyl)amino) pyrimido[5,4-c]isoquinolin-6(5H)-one], in experiment [1], the EC50 is less than 0.025 µM. Besides, the results for the half-maximal inhibitory concentration (IC50) in experiment [2] and in experiment [3] were 0.025 to 0.1 µM and less than 0.025 µM, respectively.
For `Cn1c(=O)c2cc(N)ccc2c2nc(Nc3ccc(F)c(N)c3)ncc21` [Compound C22, 8-amino-2-((3-amino-4-fluorophenyl)amino)-5-methylpyrimido[5,4-c]isoquinolin-6(5H)-one], in experiment [1], the EC50 fell in the range of 0.1 to 1 µM. In addition, the figures for the concentration for half-maximal inhibition (IC50) in experiment [2] and in experiment [3] were 0.025 to 0.1 µM and less than 0.025 µM, respectively.
Consider `COc1cc2c(cc1N)c(=O)n(C)c1cnc(Nc3cc(N)cc(F)c3)nc21` [Compound C26, 8-amino-2-((3-amino-5-fluorophenyl)amino)-9-methoxy-5-methylpyrimido [5,4-c]isoquinolin-6(5H)-one], for which the EC50 in experiment [1] was in the range of 0.025 to 0.1 µM. The IC50 in experiment [2] is 0.1 to 1 µM; in experiment [3], 0.025 to 0.1 µM.
Regarding `COc1cc2c(cc1N)c(=O)n(C)c1cnc(Nc3ccc(F)c(N)c3)nc21` [Compound C28, 8-amino-2-((3-amino-4-fluorophenyl)amino)-9-methoxy-5-methylpyrimido [5,4-c]isoquinolin-6(5H)-one], the EC50 in experiment [1] lay within 0.025 to 0.1 µM. The IC50 in experiment [2] was in the range of 0.1 to 1 µM; in experiment [3], 0.025 to 0.1 µM.
`Cn1c(=O)c2cc(N)ccc2c2nc(Nc3ccc(OCCN4CCCC4)cc3)ncc21` [Compound C34, 8-amino-5-methyl-2-((4-(2-(pyrrolidin-1-yl)ethoxy)phenyl)amino)pyrimido[5,4-c]isoquinolin-6(5H)-one]: the EC50 in experiment [1] lay in the range of 0.1 to 1 µM. Further, the IC50 is 0.1 to 1 µM in experiment [2] and less than 0.025 µM in experiment [3].
For `COc1cc2c(cc1N)c(=O)n(C)c1cnc(Nc3ccc(OCCN4CCCC4)cc3)nc21` [Compound C42, 8-amino-9-methoxy-5-methyl-2-((4-(2-(pyrrolidin-1-yl)ethoxy)phenyl)amino) pyrimido[5,4-c]isoquinolin-6(5H)-one], the EC50 in experiment [1] was 0.1 to 1 µM. Besides, the half-maximal inhibitory concentration (IC50) in experiment [2] was 0.1 to 1 µM; in experiment [3], less than 0.025 µM.
